{
  "source": "patent US12629322B2",
  "about": "“Antiseptic compositions” (RHT LIMITED, priority 2020, dated 2026)",
  "key": {"[1]": {"system": "PolySeed BOD Seed Inoculum (blend of broad spectrum bacteria)", "assay": "Durability test of bacteria inhibition (repeated spiking of bacteria on agar plate, swab viable count)", "assay_type": "cell-based", "details": "bacteria spiked every 60 minutes", "experimental": "To evaluate the durability of bacteria inhibition of the exemplary compositions, durability test by regularly spiking a fixed amount of bacteria into the sample is performed and the procedures are incorporated herein by reference.\n• Group A: Agar plate with 0.5 mL distilled water; • Group B: Agar plate with 0.5 mL 75% isopropyl alcohol (IPA); • Group C: Agar plate with 0.5 g of tested exemplary composition.\nBacteria strain used: PolySeed® BOD Seed Inoculum Capsules (1 capsule dissolved into 500 mL Distilled Water) (Interlab), which contains a blend of broad spectrum bacteria designed specifically as a seed inoculum for the Biochemical Oxygen Demand (BOD 5) test as conducted in accordance to Standard Methods of the Examination of Water and Wastewater. PolySeed® is an EPA approved BOD 5 seed inoculum that has been used to seed both municipal and industrial wastes for almost 20 years. • Agar: Trypticase Soy Agar (TSA) • Incubation condition: 48 hours at 30±1° C. • Testing Procedure\nThe above three sample group agar plates are used as the sample matrices of different initial situation for spiking 0.5 ml bacteria solution for every 60 minutes, i.e.: there was an on-going process of spiking bacteria at time 0, 60, 120, 180, 240, 300 minutes;\nA swab testing is carried out every 30 minutes from matrix samples of each group to test for the viable count of bacteria at the time interval.\nExample of sample with sequence in time: • AM: 0.5 ml bacteria solution is added at T0−10 min; • Sample A1: To swab from AM at T0; Sample A2: To swab from AM at T1; • AM: 0.5 ml bacteria solution is added at T2−10 min; • Sample A3: To swab from AM at T2; Sample A4: To swab from AM at T3; • AM: 0.5 ml bacteria solution is added at T4−10 min; and so forth. Table 2 summarized the testing schedule for durability test."}, "[2]": {"system": "PolySeed BOD Seed Inoculum (blend of broad spectrum bacteria)", "assay": "Volatility test (duration of bacteria inhibition on agar plate, swab viable count)", "assay_type": "cell-based", "experimental": "To study the duration on ability of bacteria inhibition of an exemplary composition, a volatility test is performed.\n• Group A: Agar plate with 0.5 mL distilled water; • Group B: Agar plate with 0.5 mL 75% isopropyl alcohol (IPA); • Group C: Agar plate with 0.5 g of tested exemplary composition. • Bacteria strain used: PolySeed® BOD Seed Inoculum Capsules (1 capsule dissolved into 500 mL Distilled Water) (Interlab) • Agar: Trypticase Soy Agar (TSA) • Incubation condition: 48 hours at 30±1° C. Testing Procedure\n0.5 mL bacteria solution is add into the agar plate groups A, B and C at the time interval of Tx. as defined in Table 1.3.\nAfter T10, bacteria solution is spiked to all the agar plates except agar blank.\nSwab test is carried out to test for the viable count of bacteria at the time interval Tx."}},
  "data": [
    {"substance": "75% isopropyl alcohol [75% IPA]", "values": [
      {"measurement": "Viable count of bacteria, durability test", "setting": "[1]; T0 (0 min)", "result": 8, "unit": "CFU/plate"},
      {"measurement": "Viable count of bacteria, durability test", "setting": "[1]; T1 (30 min)", "result": 28, "unit": "CFU/plate"},
      {"measurement": "Viable count of bacteria, durability test", "setting": "[1]; T2 (60 min)", "result": 53, "unit": "CFU/plate"},
      {"measurement": "Viable count of bacteria, durability test", "setting": "[1]; T3 (90 min)", "result": 89, "unit": "CFU/plate"},
      {"measurement": "Viable count of bacteria, durability test", "setting": "[1]; T4 (120 min)", "result": 254, "unit": "CFU/plate"},
      {"measurement": "Viable count of bacteria, durability test", "setting": "[1]; T5 (150 min)", "result": 346, "unit": "CFU/plate"},
      {"measurement": "Viable count of bacteria, volatility test", "setting": "[2]; T0 (0 min)", "result": 54, "unit": "CFU/plate"},
      {"measurement": "Viable count of bacteria, volatility test", "setting": "[2]; T1 (30 min)", "result": 62, "unit": "CFU/plate"},
      {"measurement": "Viable count of bacteria, volatility test", "setting": "[2]; T2 (60 min)", "result": 50, "unit": "CFU/plate"},
      {"measurement": "Viable count of bacteria, volatility test", "setting": "[2]; T3 (90 min)", "result": 45, "unit": "CFU/plate"},
      {"measurement": "Viable count of bacteria, volatility test", "setting": "[2]; T4 (120 min)", "result": 49, "unit": "CFU/plate"},
      {"measurement": "Viable count of bacteria, volatility test", "setting": "[2]; T5 (150 min)", "result": 55, "unit": "CFU/plate"},
      {"measurement": "Viable count of bacteria, volatility test", "setting": "[2]; T6 (180 min)", "result": 43, "unit": "CFU/plate"},
      {"measurement": "Viable count of bacteria, volatility test", "setting": "[2]; T7 (210 min)", "result": 37, "unit": "CFU/plate"},
      {"measurement": "Viable count of bacteria, volatility test", "setting": "[2]; T8 (240 min)", "result": 44, "unit": "CFU/plate"},
      {"measurement": "Viable count of bacteria, volatility test", "setting": "[2]; T9 (270 min)", "result": 49, "unit": "CFU/plate"},
      {"measurement": "Viable count of bacteria, volatility test", "setting": "[2]; T10 (300 min)", "result": 0, "unit": "CFU/plate"}
    ]}
  ]
}
